Results as given in patent US12344610B2, “APOL1 inhibitors and methods of use” (Maze Therapeutics, Inc., priority 2022, dated 2025).

Test system: human immortalized podocytes inducibly expressing APOL1 G2
Test: APOL1 G2 podocyte cell rescue assay (Example B4)
Assay type: cell-based
Settings: Homo sapiens, differentiated human podocytes, doxycycline-induced APOL1 G2, CellTiter-Glo; geometric mean of at least 2 runs; † = single run
Procedure, shortened: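 Differentiated hTERT-immortalized podocytes (clone D10) with doxycycline-inducible C-terminally HiBiT-tagged APOL1 G2, 6,000 cells/well, treated with doxycycline plus 8-point 3-fold compound series (0.4% DMSO) for 95 h at 37 °C. Viability by CellTiter-Glo luminescence; EC50 as geometric mean of ≥2 runs, each in duplicate.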

| Compound | EC50 [nM] |
| --- | --- |
| Cc1nc2cc(OCCN3CCC4(CC3)C(=O)Nc3ccc(Cl)cc34)cc(C(F)(F)F)c2n1[C@H]1C[C@@](C)(O)C1 [Compound 442, 5-chloro-1′-[2-({2-methyl-1-[(cis)-3-hydroxy-3-methylcyclobutyl]-7-(trifluoromethyl)-1H-1,3-benzodiazol-5-yl}oxy)ethyl]-1,2-dihydrospiro[indole-3,4′-piperidin]-2-one] | 1.16 |
| Cc1nc2cc(OCCN3CCC4(CC3)C(=O)Nc3ccc(C#N)cc34)cc(C(F)(F)F)c2n1[C@H]1C[C@@](C)(O)C1 [Compound 443, 1′-[2-({2-methyl-1-[(cis)-3-hydroxy-3-methylcyclobutyl]-7-(trifluoromethyl)-1H-1,3-benzodiazol-5-yl}oxy)ethyl]-2-oxo-1,2-dihydrospiro[indole-3,4′-piperidine]-5-carbonitrile] | 2.5 |
| C[C@]1(O)C[C@@H](n2cnc3cc(OCCN4CCC5(CC4)C(=O)Nc4ccc(C(F)F)cc45)cc(C(F)(F)F)c32)C1 [Compound 450, 5-(difluoromethyl)-1′-[2-({1-[(cis)-3-hydroxy-3-methylcyclobutyl]-7-(trifluoromethyl)-1H-1,3-benzodiazol-5-yl}oxy)ethyl]-1,2-dihydrospiro[indole-3,4′-piperidin]-2-one] | 0.846 |
| C[C@]1(O)C[C@@H](n2cnc3cc(OCCN4CCC5(CC4)C(=O)Nc4c(I)cc(Cl)cc45)cc(C(F)(F)F)c32)C1 [Compound 453, 5-chloro-7-iodo-1′-[2-({1-[(cis)-3-hydroxy-3-methylcyclobutyl]-7-(trifluoromethyl)-1H-1,3-benzodiazol-5-yl}oxy)ethyl]-1,2-dihydrospiro[indole-3,4′-piperidin]-2-one] | 1.81 |
| C[C@]1(O)C[C@@H](n2cnc3cc(OCCN4CCC5(CC4)C(=O)Nc4ccc(Cl)cc45)cc(F)c32)C1 [Compound 454, 5-chloro-1′-(2-((7-fluoro-1-((cis)-3-hydroxy-3-methylcyclobutyl)-1H-benzo[d]imidazol-5-yl)oxy)ethyl)spiro[indoline-3,4′-piperidin]-2-one] | 4.34 |
| C[C@]1(O)C[C@@H](n2ncc3cc(OCCN4CCC5(CC4)C(=O)Nc4ccc(Cl)cc45)cc(C(F)(F)F)c32)C1 [Compound 464, 5-chloro-1′-[2-({1-[(cis)-3-hydroxy-3-methylcyclobutyl]-7-(trifluoromethyl)-1H-indazol-5-yl}oxy)ethyl]-1,2-dihydrospiro[indole-3,4′-piperidin]-2-one] | 0.659 |
| C[C@]1(O)C[C@@H](n2ncc3cc(OCCN4CCC5(CC4)C(=O)Nc4ccc(C#N)cc45)cc(C(F)(F)F)c32)C1 [Compound 465, 2-oxo-1′-[2-({1-[(cis)-3-hydroxy-3-methylcyclobutyl]-7-(trifluoromethyl)-1H-indazol-5-yl}oxy)ethyl]-1,2-dihydrospiro[indole-3,4′-piperidine]-5-carbonitrile] | 1.22 |
